Measurements as given in PubChem BioAssay (NCI).
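Tested at 5 concentrations; 48 h exposure; 96-well plates; endpoints linearly interpolated, else capped at highest concentration. TGI denotes the concentration required for complete inhibition of growth.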

Legend:
Experiment in all cases: DTP human tumour cell line panel, 48 h
[1] = system: 786-0 renal
[2] = system: A498 renal
[3] = system: A549 NSCLC
[4] = system: ACHN renal
[5] = system: BT-549 breast
[6] = system: CAKI-1 renal
[7] = system: CCRF-CEM leukemia
[8] = system: COLO 205 colon
[9] = system: DU-145 prostate
[10] = system: EKVX NSCLC
[11] = system: HCC-2998 colon
[12] = system: HCT-116 colon
[13] = system: HCT-15 colon
[14] = system: HL-60(TB) leukemia
[15] = system: HOP-62 NSCLC
[16] = system: HOP-92 NSCLC
[17] = system: HS 578T breast
[18] = system: HT29 colon
[19] = system: IGROV1 ovarian
[20] = system: K-562 leukemia
[21] = system: KM12 colon
[22] = system: LOX IMVI melanoma
[23] = system: MALME-3M melanoma
[24] = system: MCF7 breast
[25] = system: MDA-MB-231 breast
[26] = system: MDA-MB-435
[27] = system: MDA-N
[28] = system: MOLT-4 leukemia
[29] = system: NCI-H226 lung
[30] = system: NCI-H23 lung
[31] = system: NCI-H460 lung
[32] = system: NCI-H522 lung
[33] = system: NCI/ADR-RES ovarian
[34] = system: OVCAR-3 ovarian
[35] = system: OVCAR-4 ovarian
[36] = system: OVCAR-5 ovarian
[37] = system: OVCAR-8 ovarian
[38] = system: PC-3 prostate
[39] = system: RPMI-8226 leukemia
[40] = system: RXF 393 renal
[41] = system: SF-268 CNS
[42] = system: SF-295 CNS
[43] = system: SF-539 CNS
[44] = system: SK-MEL-2 melanoma
[45] = system: SK-MEL-28 melanoma
[46] = system: SK-MEL-5 melanoma
[47] = system: SN12C renal
[48] = system: SNB-75 CNS
[49] = system: SR leukemia
[50] = system: SW-620 colon
[51] = system: T-47D breast
[52] = system: TK-10 renal
[53] = system: U251 CNS
[54] = system: UACC-257 melanoma
[55] = system: UACC-62 melanoma
[56] = system: UO-31 renal
[57] = system: M14 melanoma
[58] = system: SK-OV-3 ovarian
[59] = system: SNB-19 CNS

CC(C)(CO)CNc1nc(N)nc(Cl)c1/C=N/O
TGI [1]: > 100 µM
TGI [2]: > 100 µM
TGI [3]: > 100 µM
TGI [4]: > 100 µM
TGI [5]: > 100 µM
TGI [6]: > 100 µM
TGI [7]: > 100 µM
TGI [8]: > 100 µM
TGI [9]: > 100 µM
TGI [10]: > 100 µM
TGI [11]: > 100 µM
TGI [12]: > 100 µM
TGI [13]: > 100 µM
TGI [14]: > 100 µM
TGI [15]: > 100 µM
TGI [16]: 84.7 µM
TGI [17]: > 100 µM
TGI [18]: > 100 µM
TGI [19]: 90.8 µM
TGI [20]: > 100 µM
TGI [21]: > 100 µM
TGI [22]: > 100 µM
TGI [23]: > 100 µM
TGI [24]: > 100 µM
TGI [25]: > 100 µM
TGI [26]: > 100 µM
TGI [27]: > 100 µM
TGI [28]: > 100 µM
TGI [29]: > 100 µM
TGI [30]: > 100 µM
TGI [31]: > 100 µM
TGI [32]: > 100 µM
TGI [33]: > 100 µM
TGI [34]: > 100 µM
TGI [35]: > 100 µM
TGI [36]: > 100 µM
TGI [37]: > 100 µM
TGI [38]: > 100 µM
TGI [39]: > 100 µM
TGI [40]: > 100 µM
TGI [41]: > 100 µM
TGI [42]: > 100 µM
TGI [43]: > 100 µM
TGI [44]: > 100 µM
TGI [45]: > 100 µM
TGI [46]: 18.8 µM
TGI [47]: > 100 µM
TGI [48]: > 100 µM
TGI [49]: > 100 µM
TGI [50]: > 100 µM
TGI [51]: 38.9 µM
TGI [52]: > 100 µM
TGI [53]: > 100 µM
TGI [54]: > 100 µM
TGI [55]: > 100 µM
TGI [56]: > 100 µM

O=C(CCSC1=NCCCN1)c1ccc(F)cc1
TGI [1]: 14.1 µM
TGI [2]: 44.2 µM
TGI [3]: 40.3 µM
TGI [4]: 31.1 µM
TGI [5]: 35.7 µM
TGI [6]: 46.9 µM
TGI [7]: 11.6 µM
TGI [8]: 11.8 µM
TGI [9]: 36 µM
TGI [10]: 27.5 µM
TGI [11]: 36.5 µM
TGI [12]: 39.3 µM
TGI [13]: 36.2 µM
TGI [14]: 30.4 µM
TGI [15]: > 68.9 µM
TGI [16]: 40.6 µM
TGI [17]: 62.6 µM
TGI [18]: 40.5 µM
TGI [19]: 44.4 µM
TGI [20]: 10.1 µM
TGI [21]: 46.6 µM
TGI [22]: 45.1 µM
TGI [57]: 32.4 µM
TGI [23]: 19.1 µM
TGI [24]: 20.4 µM
TGI [25]: 49.1 µM
TGI [26]: 47.6 µM
TGI [27]: 32.4 µM
TGI [28]: 7.27 µM
TGI [29]: 41.9 µM
TGI [30]: 43.4 µM
TGI [31]: 47.7 µM
TGI [32]: 3.86 µM
TGI [33]: > 91.5 µM
TGI [34]: > 68.2 µM
TGI [35]: > 100 µM
TGI [36]: 29.9 µM
TGI [37]: > 94.3 µM
TGI [38]: 31 µM
TGI [39]: 14.8 µM
TGI [40]: 33 µM
TGI [41]: 67.1 µM
TGI [42]: 97.3 µM
TGI [43]: 35.9 µM
TGI [44]: 36.5 µM
TGI [45]: 34.6 µM
TGI [46]: 36.4 µM
TGI [58]: 43.5 µM
TGI [47]: 43.6 µM
TGI [59]: 42.7 µM
TGI [48]: 42.6 µM
TGI [49]: 13.3 µM
TGI [50]: 15.5 µM
TGI [51]: > 70.6 µM
TGI [52]: 30.8 µM
TGI [53]: 44.8 µM
TGI [54]: 36.5 µM
TGI [55]: 32.9 µM
TGI [56]: 20.6 µM
